What was measured:
female BALB/c mice = test: Xylazine/ketamine-induced anesthesia; format: in vivo, mouse; conditions: 0.1–1 μmol/kg s.c., 15 min before anesthesia
Procedure: According to the method described by Robichaud et al. and modified by us, S-petasin (10–100 μmol/kg, s.c.) or rolipram (0.01–1 μmol/kg, s.c.), a reference drug, was injected into 8–12 week-old female BALB/c mice 1 h or 15 min, respectively, prior to an i.p. injection of xylazine (10 mg/kg)/ketamine (70 mg/kg). The vehicle (control) for S-petasin or for rolipram was a mixture of alcohol : DMSO : 30% HPβCD : saline (0.5 : 0.5 : 1 : 8 , v/v), or alcohol : DMSO : PEG 400 : saline (0.5 : 0.5 : 1 : 8, v/v), respectively. After loss of the righting reflex (i.e., when a mouse remained on its back and no longer spontaneously righted itself to a prone position), the duration of anesthesia was measured until its return as an endpoint.

PDE1 = test: Inhibition of PDE1 activity (two-step radioenzymatic assay); format: biochemical, guinea pig; conditions: mean ± SEM (n); read-out: IC50 on PDE isozyme 1
Procedure: Activities of PDE1–5, partially separated from guinea pig lungs and hearts according to the method described by Ko et al., were measured with a two-step procedure according to the method of Thompson and Appleman, using cAMP with [^3H]-cAMP or cGMP with [^3H]-cGMP as substrates. The enzyme pμreparation (25 μL) was incubated for 30 min at 37°C in a total assay volume of […] containing 50 mM Tris-HCl (pH 7.4), 3 mM MgCl2, 1 mM dithiothreitol, 0.05% BSA, 1 μM cAMP with 0.2 μCi [^3H]-cAMP as a substrate alone or in the presence of 0.1 units calmodulin with 10 μM CaCl2 or 5 μM cGMP, and 1 μM cGMP with 0.2 μCi [^3H]-cGMP as another substrate alone or in the presence of 0.1 units calmodulin with 10 μM CaCl2. In tests of enzyme inhibition, the reaction mixture contained 10 μL of vehicle or inhibitors, at various concentrations of S-petasin or selective PDE1–5 inhibitors, such as vinpocetin [22], EHNA [23], milrinone, Ro 20-1724 [25] and zaprinast, as reference drugs. The reagents and homogenate were mixed on ice, and the reaction was initiated by transferring the mixture to a water bath at 37°C. Following a 30-min incubation, the reaction was stopped by transferring the reaction vessel to a bath of boiling water for 3 min. After cooling on ice, 20 μL of a 1 mg/mL solution of C. atrox snake venom was added to the reaction mixture, and the mixture was incubated at 37°C for 10 min. […]

[1] = system: cAMP-phosphodiesterase (PDE); parameters: method as in PMID 11345692; conditions: cited from earlier work
guinea pig trachea = conditions: cited from earlier work

Molecule: COc1ccc(C2CNC(=O)C2)cc1OC1CCCC1 (centres unmarked) [rolipram, reference compound]
- Duration of xylazine/ketamine-induced anesthesia (female BALB/c mice): dose-dependently and significantly shortened

Molecule: CCOC(=O)C1=C[C@]2(CC)CCCN3CCc4c(n1c1ccccc41)[C@@H]32 [vinpocetin, Vinpocetine, reference compound]
- IC50 (PDE1): 36.5 ± 8.8 µM

Molecule: S-isopetasin
- Inhibition of cAMP-phosphodiesterase (PDE) activity [1]: not
- IC50 (guinea pig trachea; precontracted by CCh and KCl, read-out: IC50 in relaxing guinea pig trachea): ~10 µM
- Relaxing effect on guinea pig trachea (guinea pig trachea; precontracted by histamine and LT D4): almost no effect
